Experimental data taken from ChEMBL document CHEMBL5365394, “Design, synthesis and biological evaluation of novel spiro-quinazolinone derivatives as chitin synthase inhibitors and antifungal agents” (Eur J Med Chem, 2023).
pIC50: −log10 of the molar value. ≈ marks a conversion by molar mass, not a printed value.

Assays:
Aspergillus flavus [1] = assay: Synergistic antifungal activity against Aspergillus flavus ATCC 16870 assessed as fluconazole MIC incubated for 24 hrs in by checkerboard broth microdilution method; assay type: functional
Candida albicans [2] = assay: Synergistic antifungal activity against Candida albicans ATCC 76615 assessed as fluconazole MIC incubated for 24 hrs in by checkerboard broth microdilution method; assay type: functional
Aspergillus fumigatus [3] = assay: Antifungal activity against Aspergillus fumigatus GIMCC 3.19 assessed as inhibition of cell wall synthesis incubated for 24 hrs in absence of sorbitol; assay type: functional
Candida albicans [4] = assay: Antifungal activity against Micafungin-resistant Candida albicans ATCC 76615R assessed as fungal growth inhibition; assay type: functional
Candida albicans [5] = assay: Antifungal activity against Fluconazole-resistant Candida albicans ATCC 76615R assessed as fungal growth inhibition; assay type: functional
Cryptococcus neoformans [6] = assay: Antifungal activity against Cryptococcus neoformans ATCC 32719 assessed as inhibition of cell wall synthesis incubated for 24 hrs in presence of sorbitol; assay type: functional
Aspergillus fumigatus [7] = assay: Synergistic antifungal activity against Aspergillus fumigatus GIMCC 3.19 assessed as fractional inhibitory concentration index incubated for 24 hrs in presence of polyoxin B by checkerboard broth microdilution method; assay type: functional
Candida albicans [8] = assay: Antifungal activity against Candida albicans ATCC 76615 assessed as inhibition of cell wall synthesis incubated for 24 hrs in presence of sorbitol; assay type: functional
[9] = Inhibition of Candida tropicalis ATCC 750 chitin synthase using UDP-GlcNAc as substrate incubated for 1 hr by absorbance based assay
Aspergillus fumigatus [10] = assay: Synergistic antifungal activity against Aspergillus fumigatus GIMCC 3.19 assessed as fluconazole MIC incubated for 24 hrs in by checkerboard broth microdilution method; assay type: functional
Candida albicans [11] = assay: Antifungal activity against Candida albicans ATCC 76615 assessed as fungal growth inhibition incubated for 24 hrs by two-fold serial dilution method; assay type: functional
Aspergillus flavus [12] = assay: Antifungal activity against Aspergillus flavus ATCC 16870 assessed as inhibition of cell wall synthesis incubated for 24 hrs in absence of sorbitol; assay type: functional
Cryptococcus neoformans [13] = assay: Synergistic antifungal activity against Cryptococcus neoformans ATCC 32719 assessed as polyoxin B MIC incubated for 24 hrs in by checkerboard broth microdilution method; assay type: functional
Aspergillus flavus [14] = assay: Antifungal activity against Aspergillus flavus ATCC 16870 assessed as fungal growth inhibition incubated for 24 hrs by two-fold serial dilution method; assay type: functional
Cryptococcus neoformans [15] = assay: Antifungal activity against Fluconazole-resistant Cryptococcus neoformans ATCC 32719R assessed as fungal growth inhibition; assay type: functional
Candida tropicalis = assay: Inhibition of Candida tropicalis ATCC 750 chitin synthase using […] as substrate at 300 ug/ml incubated for 1 hr by absorbance based assay relative to control; settings: dose 300.0 µg/ml
Cryptococcus neoformans [16] = assay: Antifungal activity against Cryptococcus neoformans ATCC 32719 assessed as inhibition of cell wall synthesis incubated for 24 hrs in absence of sorbitol; assay type: functional
Aspergillus flavus [17] = assay: Additive antifungal activity against Aspergillus flavus ATCC 16870 assessed as fractional inhibitory concentration index incubated for 24 hrs in presence of polyoxin B by checkerboard broth microdilution method; assay type: functional
Aspergillus fumigatus [18] = assay: Antifungal activity against Fluconazole-resistant Aspergillus fumigatus GIMCC 3.19R assessed as fungal growth inhibition; assay type: functional
Cryptococcus neoformans [19] = assay: Antifungal activity against Cryptococcus neoformans ATCC 32719 assessed as fungal growth inhibition incubated for 24 hrs by two-fold serial dilution method; assay type: functional
Aspergillus fumigatus [20] = assay: Antifungal activity against Aspergillus fumigatus GIMCC 3.19 assessed as fungal growth inhibition incubated for 24 hrs by two-fold serial dilution method; assay type: functional
Aspergillus flavus [21] = assay: Synergistic antifungal activity against Aspergillus flavus ATCC 16870 assessed as polyoxin B MIC incubated for 24 hrs by checkerboard broth microdilution method; assay type: functional
Candida albicans [22] = assay: Antifungal activity against Candida albicans ATCC 76615 assessed as inhibition of cell wall synthesis incubated for 24 hrs in absence of sorbitol; assay type: functional
Cryptococcus neoformans [23] = assay: Synergistic antifungal activity against Cryptococcus neoformans ATCC 32719 assessed as fractional inhibitory concentration index incubated for 24 hrs in presence of fluconazole by checkerboard broth microdilution method; assay type: functional
Cryptococcus neoformans [24] = assay: Synergistic antifungal activity against Cryptococcus neoformans ATCC 32719 assessed as fluconazole MIC incubated for 24 hrs in by checkerboard broth microdilution method; assay type: functional
Aspergillus fumigatus [25] = assay: Antifungal activity against Aspergillus fumigatus GIMCC 3.19 assessed as inhibition of cell wall synthesis incubated for 24 hrs in presence of sorbitol; assay type: functional
Aspergillus flavus [26] = assay: Additive antifungal activity against Aspergillus flavus ATCC 16870 assessed as fractional inhibitory concentration index incubated for 24 hrs in presence of fluconazole by checkerboard broth microdilution method; assay type: functional
Candida albicans [27] = assay: Additive antifungal activity against Candida albicans ATCC 76615 assessed as fractional inhibitory concentration index incubated for 24 hrs in presence of polyoxin B by checkerboard broth microdilution method; assay type: functional
Candida albicans [28] = assay: Additive antifungal activity against Candida albicans ATCC 76615 assessed as fractional inhibitory concentration index incubated for 24 hrs in presence of fluconazole by checkerboard broth microdilution method; assay type: functional
Aspergillus flavus [29] = assay: Antifungal activity against Aspergillus flavus ATCC 16870 assessed as inhibition of cell wall synthesis incubated for 24 hrs in presence of sorbitol; assay type: functional
Aspergillus fumigatus [30] = assay: Additive antifungal activity against Aspergillus fumigatus GIMCC 3.19 assessed as fractional inhibitory concentration index incubated for 24 hrs in presence of fluconazole by checkerboard broth microdilution method; assay type: functional
Cryptococcus neoformans [31] = assay: Synergistic antifungal activity against Cryptococcus neoformans ATCC 32719 assessed as fractional inhibitory concentration index incubated for 24 hrs in presence of polyoxin B by checkerboard broth microdilution method; assay type: functional
Aspergillus fumigatus [32] = assay: Synergistic antifungal activity against Aspergillus fumigatus GIMCC 3.19 assessed as polyoxin B MIC incubated for 24 hrs by checkerboard broth microdilution method; assay type: functional
Candida albicans [33] = assay: Synergistic antifungal activity against Candida albicans ATCC 76615 assessed as polyoxin B MIC incubated for 24 hrs by checkerboard broth microdilution method; assay type: functional
Aspergillus flavus [34] = assay: Antifungal activity against Fluconazole-resistant Aspergillus flavus ATCC 16870R assessed as fungal growth inhibition; assay type: functional
Aspergillus flavus [35] = assay: Synergistic antifungal activity against Aspergillus flavus ATCC 16870 assessed as fractional inhibitory concentration index incubated for 24 hrs in presence of fluconazole by checkerboard broth microdilution method; assay type: functional
Candida albicans [36] = assay: Synergistic antifungal activity against Candida albicans ATCC 76615 assessed as fractional inhibitory concentration index incubated for 24 hrs in presence of polyoxin B by checkerboard broth microdilution method; assay type: functional
Aspergillus fumigatus [37] = assay: Synergistic antifungal activity against Aspergillus fumigatus GIMCC 3.19 assessed as fractional inhibitory concentration index incubated for 24 hrs in presence of fluconazole by checkerboard broth microdilution method; assay type: functional
Cryptococcus neoformans [38] = assay: Additive antifungal activity against Cryptococcus neoformans ATCC 32719 assessed as fractional inhibitory concentration index incubated for 24 hrs in presence of polyoxin B by checkerboard broth microdilution method; assay type: functional
Cryptococcus neoformans [39] = assay: Additive antifungal activity against Cryptococcus neoformans ATCC 32719 assessed as fractional inhibitory concentration index incubated for 24 hrs in presence of fluconazole by checkerboard broth microdilution method; assay type: functional
Aspergillus fumigatus [40] = assay: Additive antifungal activity against Aspergillus fumigatus GIMCC 3.19 assessed as fractional inhibitory concentration index incubated for 24 hrs in presence of polyoxin B by checkerboard broth microdilution method; assay type: functional

SMILES	MIC (Aspergillus flavus [1]) [µg/mL]	MIC (Candida albicans [2]) [µg/mL]	MIC (Aspergillus fumigatus [3]) [µg/mL]	MIC (Candida albicans [4]) [µg/mL]	MIC (Candida albicans [5]) [µg/mL]	MIC (Cryptococcus neoformans [6]) [µg/mL]	MIC (Candida albicans [8]) [µg/mL]	pIC50 [9]	MIC (Aspergillus fumigatus [10]) [µg/mL]	MIC (Candida albicans [11]) [µg/mL]	MIC (Aspergillus flavus [12]) [µg/mL]	MIC (Cryptococcus neoformans [13]) [µg/mL]	MIC (Aspergillus flavus [14]) [µg/mL]	MIC (Cryptococcus neoformans [15]) [µg/mL]	inhibition (Candida tropicalis) [%]	MIC (Cryptococcus neoformans [16]) [µg/mL]	fractional inhibitory concentration index (FICI) (Aspergillus flavus [17])	MIC (Aspergillus fumigatus [18]) [µg/mL]	MIC (Cryptococcus neoformans [19]) [µg/mL]	MIC (Aspergillus fumigatus [20]) [µg/mL]	other results
O=C(/C=C/C(=O)Nc1ccc2c(c1)C(=O)NC1(CCSC1)N2)Nc1ccc(Br)cc1 (stereo not given)	4	1	16 (≈ 32.8 µM)	16 (≈ 32.8 µM)	32 (≈ 65.7 µM)	128	128	3.93	1	16 (≈ 32.8 µM)	32 (≈ 65.7 µM)	4	16 (≈ 32.8 µM)	8 (≈ 16.4 µM)	75.3	8 (≈ 16.4 µM)	1.125	16 (≈ 32.8 µM)	2 (≈ 4.1 µM)	8 (≈ 16.4 µM)	fractional inhibitory concentration index (FICI) (Aspergillus fumigatus [7]): 1; MIC (Aspergillus flavus [21]): 2 µg/mL; MIC (Candida albicans [22]): 16 µg/mL (≈ 32.8 µM); fractional inhibitory concentration index (FICI) (Cryptococcus neoformans [23]): 0.75; MIC (Cryptococcus neoformans [24]): 2 µg/mL; MIC (Aspergillus fumigatus [25]): 256 µg/mL; fractional inhibitory concentration index (FICI) (Aspergillus flavus [26]): 1.5; fractional inhibitory concentration index (FICI) (Candida albicans [27]): 1.25; fractional inhibitory concentration index (FICI) (Candida albicans [28]): 1.5; MIC (Aspergillus flavus [29]): 256 µg/mL; fractional inhibitory concentration index (FICI) (Aspergillus fumigatus [30]): 1.125; fractional inhibitory concentration index (FICI) (Cryptococcus neoformans [31]): 0.75; MIC (Aspergillus fumigatus [32]): 8 µg/mL; MIC (Candida albicans [33]): 2 µg/mL; MIC (Aspergillus flavus [34]): 32 µg/mL (≈ 65.7 µM)
O=C(/C=C/C(=O)Nc1ccccc1[N+](=O)[O-])Nc1ccc2c(c1)C(=O)NC1(CCSC1)N2 (stereo not given)	2	2	4 (≈ 8.82 µM)	8 (≈ 17.6 µM)	8 (≈ 17.6 µM)	128	128	3.99	1	1 (≈ 2.21 µM)	8 (≈ 17.6 µM)	16	1 (≈ 2.21 µM)	8 (≈ 17.6 µM)	81.9	8 (≈ 17.6 µM)	1.125	8 (≈ 17.6 µM)	4 (≈ 8.82 µM)	1 (≈ 2.21 µM)	fractional inhibitory concentration index (FICI) (Aspergillus flavus [35]): 1; fractional inhibitory concentration index (FICI) (Aspergillus fumigatus [7]): 0.625; fractional inhibitory concentration index (FICI) (Candida albicans [36]): 0.75; fractional inhibitory concentration index (FICI) (Aspergillus fumigatus [37]): 0.375; MIC (Aspergillus flavus [21]): 16 µg/mL; MIC (Candida albicans [22]): 8 µg/mL (≈ 17.6 µM); fractional inhibitory concentration index (FICI) (Cryptococcus neoformans [38]): 1.5; MIC (Cryptococcus neoformans [24]): 0.5 µg/mL; MIC (Aspergillus fumigatus [25]): 64 µg/mL; fractional inhibitory concentration index (FICI) (Cryptococcus neoformans [39]): 1.125; fractional inhibitory concentration index (FICI) (Candida albicans [28]): 1.125; MIC (Aspergillus flavus [29]): 128 µg/mL; MIC (Aspergillus fumigatus [32]): 2 µg/mL; MIC (Candida albicans [33]): 4 µg/mL; MIC (Aspergillus flavus [34]): 16 µg/mL (≈ 35.3 µM)
Cc1ccc([N+](=O)[O-])cc1NC(=O)/C=C/C(=O)Nc1ccc2c(c1)C(=O)NC1(CCSC1)N2 (stereo not given)	1	2	16 (≈ 34.2 µM)	16 (≈ 34.2 µM)	16 (≈ 34.2 µM)	128	128	3.91	1	2 (≈ 4.28 µM)	16 (≈ 34.2 µM)	16	16 (≈ 34.2 µM)	32 (≈ 68.4 µM)	77.4	16 (≈ 34.2 µM)	1.125	16 (≈ 34.2 µM)	8 (≈ 17.1 µM)	16 (≈ 34.2 µM)	fractional inhibitory concentration index (FICI) (Candida albicans [36]): 0.5; fractional inhibitory concentration index (FICI) (Aspergillus fumigatus [40]): 1.125; MIC (Aspergillus flavus [21]): 2 µg/mL; MIC (Candida albicans [22]): 8 µg/mL (≈ 17.1 µM); fractional inhibitory concentration index (FICI) (Cryptococcus neoformans [38]): 1.5; MIC (Cryptococcus neoformans [24]): 2 µg/mL; MIC (Aspergillus fumigatus [25]): 128 µg/mL; fractional inhibitory concentration index (FICI) (Aspergillus flavus [26]): 1.25; fractional inhibitory concentration index (FICI) (Cryptococcus neoformans [39]): 1.5; fractional inhibitory concentration index (FICI) (Candida albicans [28]): 1.5; MIC (Aspergillus flavus [29]): 256 µg/mL; fractional inhibitory concentration index (FICI) (Aspergillus fumigatus [30]): 1.125; MIC (Aspergillus fumigatus [32]): 2 µg/mL; MIC (Candida albicans [33]): 2 µg/mL; MIC (Aspergillus flavus [34]): 32 µg/mL (≈ 68.4 µM)
O=C(/C=C/C(=O)Nc1ccc(Cl)cc1Cl)Nc1ccc2c(c1)C(=O)NC1(CCSC1)N2 (stereo not given)	4	2	16 (≈ 33.5 µM)	16 (≈ 33.5 µM)	32 (≈ 67 µM)	128	256	3.86	2	8 (≈ 16.8 µM)	32 (≈ 67 µM)	16	8 (≈ 16.8 µM)	32 (≈ 67 µM)	73.9	16 (≈ 33.5 µM)	2	16 (≈ 33.5 µM)	8 (≈ 16.8 µM)	8 (≈ 16.8 µM)	fractional inhibitory concentration index (FICI) (Aspergillus fumigatus [37]): 0.75; fractional inhibitory concentration index (FICI) (Aspergillus fumigatus [40]): 1.5; MIC (Aspergillus flavus [21]): 16 µg/mL; MIC (Candida albicans [22]): 16 µg/mL (≈ 33.5 µM); fractional inhibitory concentration index (FICI) (Cryptococcus neoformans [38]): 1.5; MIC (Cryptococcus neoformans [24]): 2 µg/mL; MIC (Aspergillus fumigatus [25]): 128 µg/mL; fractional inhibitory concentration index (FICI) (Aspergillus flavus [26]): 1.25; fractional inhibitory concentration index (FICI) (Cryptococcus neoformans [39]): 1.5; fractional inhibitory concentration index (FICI) (Candida albicans [27]): 1.25; fractional inhibitory concentration index (FICI) (Candida albicans [28]): 1.5; MIC (Aspergillus flavus [29]): 256 µg/mL; MIC (Aspergillus fumigatus [32]): 8 µg/mL; MIC (Candida albicans [33]): 2 µg/mL; MIC (Aspergillus flavus [34]): 32 µg/mL (≈ 67 µM)
